Test results taken from patent publication US9340577B2, “HLA binding motifs and peptides and their uses” (priority 1992, dated 2016).
No end group written: not given here.

Assays:
Assay in all cases: biochemical
DRB1*1501 = DRB1*1501 (Homo sapiens, UniProt P01903+P01911); format: binding
DRB4*0101 = DRB4*0101 (Homo sapiens, UniProt P01903+P13762, G164S); format: binding
DRB1*0901 = DRB1*0901 (Homo sapiens, UniProt P01903+P01911, A100R/A103E/D57H/D86V/F55Y/F60I/F76Y/I96F/K127E/L162R/M171V/P40D/Q125H/Q99R/R33Q/R42F/S133A/S66N/T210M/V115G/W38K/Y107V/Y59G/Y89S); format: binding
DRB1*1101 = DRB1*1101 (Homo sapiens, UniProt P01903+P01911, A100R/A169T/A87E/I96F/K41T/L162R/M171V/P40S/Q125H/Q178H/Q39Y/Q99D/R42S/S66Y/T262R/V115G/W38E); conditions: Binding affinity DRB1 *1101
DRB1*1302 = DRB1*1302 (Homo sapiens, UniProt P01903+P01911, A100E/A169T/K41T/L162R/M171V/P40S/Q125H/Q178H/Q39Y/Q99D/R42S/S66N/T262R/V115G/W38E/Y61H); format: binding
DR7 (DRB1*0701) = DR7 (DRB1*0701) (Homo sapiens, UniProt P01903+P01911, A100R/A102G/A103Q/D57E/D86V/E43K/F76Y/K127E/L162R/M171V/P40G/Q125H/Q99D/R33Q/R42Y/R54Q/S133A/S66F/T210M/V115G/Y107V/Y59L/Y89S); format: binding
HLA-A*0201 (HLA-A2.1) = HLA-A*0201 (HLA-A2.1) (Homo sapiens, UniProt P04439, D140Y/D185E/D98H/E176V/E277Q/G131W/G231S/I119V/I121R/I166T/I218V/L300P/L318F/N151K/N90K/P208A/P217A/Q86G/Q94H/R138H/R169H/T345S); format: binding
A*0202 = A*0202 (Homo sapiens, UniProt P04439, D140Y/D185E/D98H/E176V/E277Q/G131W/G231S/I119L/I121R/I166T/I218V/L180W/L300P/L318F/N151K/N90K/P208A/P217A/Q67R/Q86G/Q94H/R138H/R169H/T345S); format: binding
A*0206 = A*0206 (Homo sapiens, UniProt P04439, D140Y/D185E/D98H/E176V/E277Q/F33Y/G131W/G231S/I119V/I121R/I166T/I218V/L300P/L318F/N151K/N90K/P208A/P217A/Q86G/Q94H/R138H/R169H/T345S); format: binding
A*6802 = A*6802 (Homo sapiens, UniProt P04439, A269V/D140Y/D185E/E176V/E277Q/E87N/F33Y/G231S/I121R/I166T/I218V/L180W/L300P/L318F/N151K/P208A/P217A/Q86R/R138H/R169H/S129P/T345S/V36M); format: binding
DRB1*0802 = DRB1*0802 (Homo sapiens, UniProt P01903+P01911, A100R/A103L/A169T/F76Y/H45Y/I96F/K41T/L162R/M171V/P40S/Q125H/Q178H/Q39Y/Q99D/R218S/R42G/S66Y/V115G/W38E); format: binding
DRB5*0101 = DRB5*0101 (Homo sapiens, UniProt P01903+Q30154); conditions: Binding affinity DRB5 *0101
DR1 (DRB1*0101) = DR1 (DRB1*0101) (Homo sapiens, UniProt P01903+P01911, A100R/D57E/F55L/F60I/F76Y/I96L/L162R/M171V/P40L/Q125E/R42F/V115G/Y59C); format: binding

Chain of DRB1*1302 (P01903 26-254 limits assumed, other chains not shown): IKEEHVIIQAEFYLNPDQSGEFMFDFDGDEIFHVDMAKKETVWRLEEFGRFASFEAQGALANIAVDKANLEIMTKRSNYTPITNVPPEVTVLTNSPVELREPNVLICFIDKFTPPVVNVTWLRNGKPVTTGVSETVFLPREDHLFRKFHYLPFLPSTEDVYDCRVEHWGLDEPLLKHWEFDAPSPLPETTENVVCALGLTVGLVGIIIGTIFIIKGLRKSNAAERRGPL
Chain of DRB1*1101 (P01903 26-254 limits assumed, other chains not shown): as above

Compound: TNCMLIQPPKLRSTA [Peptide 89.0046]
- IC50 (DRB1*1501): 5120 nM
- IC50 (DRB4*0101): 479 nM
- IC50 (DRB1*0901): > 20000 nM
- IC50 (DRB1*1101): 1090 nM
- IC50 (DRB1*1302): 5100 nM
- IC50 (DR7 (DRB1*0701)): 1120 nM

Compound: ALDGNDISV [Peptide 1578.33]
- IC50 (HLA-A*0201 (HLA-A2.1)): 40 nM
- IC50 (A*0202): 41 nM
- IC50 (A*0206): 48 nM
- IC50 (A*6802): > 20000 nM

Compound: YVVWDSIYYI [Peptide 1578.52]
- IC50 (HLA-A*0201 (HLA-A2.1)): 77 nM
- IC50 (A*0202): 127 nM
- IC50 (A*0206): 49 nM

Compound: QQHTQELFV [Peptide 9013.0078]
- IC50 (HLA-A*0201 (HLA-A2.1)): 2480 nM
- IC50 (A*0202): 5290 nM
- IC50 (A*6802): > 20000 nM

Compound: CC[C@H](C)[C@H](NC(=O)[C@@H](N)Cc1c[nH]c2ccccc12)C(=O)N[C@H](C(=O)N[C@@H](CCC(N)=O)C(=O)N[C@@H](CS)C(=O)N[C@@H](Cc1ccccc1)C(=O)N[C@@H](CC(C)C)C(=O)N1CCC[C@H]1C(=O)N[C@H](C(=O)N[C@@H](Cc1ccccc1)C(=O)N[C@@H](CC(C)C)C(=O)N[C@@H](C)C(=O)N[C@@H](CCC(N)=O)C(=O)N1CCC[C@H]1C(=O)N1CCC[C@H]1C(=O)N[C@@H](CO)C(=O)NCC(=O)N[C@@H](CCC(N)=O)C(=O)N[C@@H](CCCNC(=N)N)C(=O)N[C@@H](CCCNC(=N)N)C(=O)O)C(C)C)[C@@H](C)O [Peptide F189.02]
- IC50 (DRB1*1501): 726 nM
- IC50 (DRB4*0101): 688 nM
- IC50 (DRB1*1302): 23600 nM

Compound: EIYIIEETTCTLVAG [Peptide 90.0251]
- IC50 (DRB4*0101): 1100 nM
- IC50 (DRB1*1302): 1110 nM

Compound: STQELFIPNV [Peptide 9013.0181]
- IC50 (HLA-A*0201 (HLA-A2.1)): 5500 nM
- IC50 (A*0202): 2100 nM
- IC50 (A*6802): 854 nM

Compound: CC[C@H](C)[C@H](NC(=O)[C@@H](NC(=O)[C@H](CCSC)NC(=O)[C@H](Cc1ccc(O)cc1)NC(=O)CNC(=O)[C@@H](NC(=O)[C@H](CO)NC(=O)[C@@H](NC(=O)[C@H](CCC(N)=O)NC(=O)[C@@H](NC(=O)[C@H](CO)NC(=O)[C@H](CC(N)=O)NC(=O)[C@@H]1CCCN1C(=O)[C@@H](NC(=O)[C@@H](N)[C@@H](C)O)[C@@H](C)CC)C(C)C)[C@@H](C)CC)C(C)C)[C@@H](C)O)C(=O)O [Peptide 1601.42]
- IC50 (DRB1*1501): 10 nM
- IC50 (DRB4*0101): 16 nM
- IC50 (DR7 (DRB1*0701)): 9 nM

Compound: ELQNTTYLWWV [Peptide 9013.0325]
- IC50 (HLA-A*0201 (HLA-A2.1)): 3000 nM
- IC50 (A*0206): > 20000 nM
- IC50 (A*6802): 157 nM

Compound: KILQQLLFI [Peptide 1525.21]
- IC50 (HLA-A*0201 (HLA-A2.1)): 41 nM
- IC50 (A*0206): 51 nM
- IC50 (A*6802): > 20000 nM

Compound: RLTVSKLMSQLLNIP [Peptide 89.0100]
- IC50 (DRB1*1501): > 20000 nM
- IC50 (DRB1*0802): > 20000 nM
- IC50 (DRB5*0101): > 20000 nM
- IC50 (DRB4*0101): 4820 nM
- IC50 (DRB1*0901): > 20000 nM
- IC50 (DRB1*1101): > 20000 nM
- IC50 (DRB1*1302): 7.3 nM
- IC50 (DR7 (DRB1*0701)): 4990 nM

Compound: VQWAYDNEL [Peptide 86.0196]
- IC50 (A*0202): 190 nM
- IC50 (A*0206): 1100 nM
- IC50 (A*6802): > 20000 nM

Compound: WLNYTPGPGI [Peptide 73.0129]
- IC50 (A*0206): > 20000 nM

Compound: ACSWGMVMLMLVRFK [Peptide 89.0043]
- IC50 (DRB1*0802): 2900 nM
- IC50 (DRB5*0101): 5630 nM
- IC50 (DRB4*0101): 467 nM
- IC50 (DRB1*0901): 10500 nM
- IC50 (DRB1*1101): 679 nM
- IC50 (DR7 (DRB1*0701)): > 20000 nM

Compound: KLFCADPAL [Peptide 1578.50]
- IC50 (A*0202): 6.8 nM
- IC50 (A*6802): > 20000 nM

Compound: YTNWKFIYL [Peptide 1578.47]
- IC50 (A*0206): 84 nM
- IC50 (A*6802): 146 nM

Compound: NKALQAIELQLTLET [Peptide 89.0151]
- IC50 (DRB1*1501): > 20000 nM
- IC50 (DR1 (DRB1*0101)): 80 nM
- IC50 (DRB5*0101): 462 nM
- IC50 (DRB4*0101): 32 nM
- IC50 (DRB1*0901): 16800 nM
- IC50 (DRB1*1302): 1800 nM
- IC50 (DR7 (DRB1*0701)): 1200 nM

Compound: IQNIIQNDV [Peptide 9013.0032]
- IC50 (HLA-A*0201 (HLA-A2.1)): 16200 nM
- IC50 (A*0202): 1930 nM
- IC50 (A*6802): > 20000 nM
